Some test systems named below: MOLT-4 leukemia; IGROV1 ovarian; ACHN renal; NCI/ADR-RES ovarian; A498 renal; UO-31 renal; KM12 colon; HL-60(TB) leukemia; NCI-H460 lung; UACC-62 melanoma.
What all share (assay): NCI tumour cell line growth inhibition, 48 h

Values joined by “and” are separate entries in the source; they are usually repeats but may differ in a detail not shown here. Equal entries are not always repeated.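 Test compounds were applied to cells in 96-well plates for 48 hours at 5 doses. GI50: concentration for 50% inhibition of growth. TGI is the concentration that stops growth completely.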

As to `CCCCCCCCCC[C@H](O)[C@H](O)CC[C@@H](O)[C@H]1CC[C@@H]([C@H]2CC[C@H](CCCCCCC[C@@H](O)CC3=C[C@H](C)OC3=O)O2)O1`, the GI50 in the test with MOLT-4 leukemia is 23.9 µM; in the test on IGROV1 ovarian, 25.8 µM; with NCI/ADR-RES ovarian it was 18.2 µM; in the test on A498 renal it was 17.7 µM; in the test with UO-31 renal, 16.6 µM; in the test on KM12 colon it was 27.7 µM. Besides, the GI50 in the test on NCI-H460 lung is 0.39 µM. The TGI in the test with MOLT-4 leukemia is 94.7 µM; with ACHN renal it was > 100 µM; with NCI/ADR-RES ovarian, > 100 µM; in the test on A498 renal, 87.1 µM; in the test with UO-31 renal it was 4.18 µM and 32.3 µM; in the test on KM12 colon it was > 100 µM. For the same molecule, the TGI in the test on HL-60(TB) leukemia was 6.74 µM; with NCI-H460 lung, 29.6 µM; in the test on UACC-62 melanoma, 5.95 µM.

As for `CC(=O)[C@H]1CCC/C=C/[C@@H]2C[C@H](O)C[C@H]2[C@H](O)/C=C/C(=O)O1`, the GI50 is 0.321 µM in the test on MOLT-4 leukemia; 0.803 µM in the test with IGROV1 ovarian; 0.674 µM in the test on ACHN renal; 0.527 µM in the test on NCI/ADR-RES ovarian; 0.118 µM in the test on A498 renal; 0.296 µM with UO-31 renal. Also, the GI50 with KM12 colon was 0.75 µM; in the test on HL-60(TB) leukemia, 0.261 µM; in the test on NCI-H460 lung it was 2.67 µM; with UACC-62 melanoma, 0.498 µM. Also, the TGI with IGROV1 ovarian is > 24 µM; in the test on ACHN renal it was > 26.4 µM; in the test with NCI/ADR-RES ovarian, 3.46 µM; with A498 renal, 1.37 µM; with UO-31 renal, > 100 µM; in the test on KM12 colon, > 19.7 µM. Further, the TGI with HL-60(TB) leukemia is 0.712 µM; in the test with NCI-H460 lung, > 100 µM; with UACC-62 melanoma it was > 100 µM.

Turning to `CSc1nc2c(c(=O)n1C)CN(C1CCCCC1)C(=O)C(c1ccccc1)N2` (stereo not given), the GI50 is 12.2 µM with MOLT-4 leukemia; 34.6 µM in the test with IGROV1 ovarian; 12.1 µM with ACHN renal; 38.9 µM in the test with NCI/ADR-RES ovarian; 0.292 µM with A498 renal; 34.1 µM with UO-31 renal. In addition, the GI50 with KM12 colon is 27.6 µM; in the test with HL-60(TB) leukemia, 17.5 µM; with NCI-H460 lung, 37.2 µM; with UACC-62 melanoma, 8.01 µM. The TGI was 39 µM in the test with MOLT-4 leukemia; > 100 µM with IGROV1 ovarian; > 100 µM with ACHN renal; > 100 µM with NCI/ADR-RES ovarian; 37.6 µM with A498 renal; > 100 µM with UO-31 renal. Moreover, the TGI is > 100 µM with KM12 colon, 67.5 µM in the test with HL-60(TB) leukemia, > 100 µM with NCI-H460 lung and 57.8 µM with UACC-62 melanoma.

As for `CCN(CC)CCCC(C)N/C(=C1\C(=O)NC(=O)\C1=C(/NC(C)CCCN(CC)CC)c1cccc(OC)c1)c1cccc(OC)c1` (stereo not given), the GI50 is 0.312 µM in the test on MOLT-4 leukemia; 0.844 µM in the test on IGROV1 ovarian; 0.393 µM with ACHN renal; 1.36 µM with NCI/ADR-RES ovarian; 0.791 µM with A498 renal; 0.733 µM in the test on UO-31 renal. Besides, the GI50 with KM12 colon is 0.835 µM; in the test on HL-60(TB) leukemia, 0.968 µM; with NCI-H460 lung, 0.58 µM; with UACC-62 melanoma, 0.859 µM. The TGI in the test with MOLT-4 leukemia was 2.09 µM; in the test with IGROV1 ovarian, 2.35 µM; in the test on ACHN renal it was 2.16 µM; in the test with NCI/ADR-RES ovarian it was 5.04 µM; in the test on A498 renal, 5.58 µM; in the test on UO-31 renal, 1.49 µM. The TGI in the test on KM12 colon is 4.06 µM; in the test on HL-60(TB) leukemia it was 2.49 µM; in the test with NCI-H460 lung it was 2.05 µM; in the test with UACC-62 melanoma, 1.62 µM.

In the case of `CC(=O)NNc1nc(C)c(C(/C=C/c2ccccc2O)=N/N=C(N)N)s1`, the TGI in the test with MOLT-4 leukemia, in the test with IGROV1 ovarian, in the test with ACHN renal, in the test with NCI/ADR-RES ovarian, with A498 renal and with UO-31 renal was > 100 µM in each case. In addition, the TGI with KM12 colon, in the test on HL-60(TB) leukemia, in the test with NCI-H460 lung and in the test with UACC-62 melanoma was > 100 µM throughout.

In the case of `Nc1nc(/C=C\c2ccccc2)nc(N2CCN(c3ccccc3)CC2)n1`, the GI50 in the test on MOLT-4 leukemia was 36.8 µM; in the test with IGROV1 ovarian it was 22.9 µM; in the test with ACHN renal, 29.2 µM; in the test on NCI/ADR-RES ovarian, 25.5 µM; in the test on A498 renal, 35.1 µM; in the test with UO-31 renal, 38.4 µM. Besides, the GI50 was 27.2 µM in the test with KM12 colon, 25.4 µM in the test on HL-60(TB) leukemia, 24.5 µM in the test on NCI-H460 lung and 26 µM with UACC-62 melanoma. Further, the TGI was > 100 µM with MOLT-4 leukemia; 69.8 µM with IGROV1 ovarian; > 100 µM with ACHN renal; 93.3 µM with NCI/ADR-RES ovarian; 87.9 µM in the test on A498 renal; > 100 µM in the test on UO-31 renal. The TGI in the test with KM12 colon is 60.6 µM; with HL-60(TB) leukemia it was 66.3 µM; in the test with NCI-H460 lung, > 100 µM; in the test on UACC-62 melanoma, 91.6 µM.

Turning to `CC1=CC(C)(C)NN1C1=NS(=O)(=O)c2ccccc2N1C`, the TGI in the test with MOLT-4 leukemia, with IGROV1 ovarian, in the test on ACHN renal, in the test with NCI/ADR-RES ovarian, in the test with A498 renal and with UO-31 renal was > 100 µM throughout. Moreover, the TGI in the test on KM12 colon, with HL-60(TB) leukemia, with NCI-H460 lung and in the test on UACC-62 melanoma was > 100 µM throughout.

Regarding `CC(C)COc1nc2c(c(=O)n(C)c(=O)n2C)n1C`, the GI50 in the test with MOLT-4 leukemia is > 100 µM; in the test on IGROV1 ovarian, 0.544 µM; in the test with ACHN renal it was > 100 µM; in the test on NCI/ADR-RES ovarian it was > 100 µM; in the test with A498 renal it was > 100 µM; in the test on UO-31 renal, > 100 µM. Besides, the GI50 in the test on KM12 colon, in the test on HL-60(TB) leukemia, in the test on NCI-H460 lung and in the test on UACC-62 melanoma was > 100 µM in each case. For the same molecule, the TGI with MOLT-4 leukemia, in the test with IGROV1 ovarian, with ACHN renal, with NCI/ADR-RES ovarian, with A498 renal and in the test with UO-31 renal was > 100 µM in each case. Besides, the TGI with KM12 colon, in the test on HL-60(TB) leukemia, in the test on NCI-H460 lung and with UACC-62 melanoma was > 100 µM in each case.

The values are drawn from PubChem BioAssay (NCI).
